Experimental data published in ChEMBL document CHEMBL1821551, “From fragment screening to in vivo efficacy: optimization of a series of 2-aminoquinolines as potent inhibitors of beta-site amyloid precursor protein cleaving enzyme 1 (BACE1)” (J Med Chem, 2011).

These compounds were tested on human MDR1 (P-gp) (assay: in vitro). Details: pig, LLC-PK1.

Row | Papp | SMILES
1 | 65 nm/s | Cc1ccccc1-c1ccc2nc(N)c(C[C@@H](C)C(=O)NCc3ccccc3)cc2c1
2 | 160 nm/s | Cc1ccccc1-c1ccc2nc(N)c(CC(C)C(=O)NCc3cccnc3)cc2c1 (racemic)
3 | 120 nm/s | Cc1ccccc1-c1ccc2nc(N)c(CC(C)C(=O)NCc3cncs3)cc2c1 (racemic)
